According to publication PMC5664067, “Investigating the Interaction of Cyclic RGD Peptidomimetics with αVβ6 Integrin by Biochemical and Molecular Docking Studies” (Cancers, 2017):
Like-named read-outs stand apart in the source and are kept apart here.

How the values were obtained:
[1] = molecular target: T1, Recombinant human integrin αVβ6 receptor (Homo sapiens, UniProt P06756+P18564); test: Competitive solid-phase binding assay: inhibition of biotinylated fibronectin binding to isolated αVβ6 integrin; details: for IC50 (αVβ6)/IC50 (αVβ3): selectivity ratio; for αVβ6 IC50: 50% inhibition of biotinylated fibronectin (1 μg/mL) binding to isolated αVβ6, mean ± SD of triplicate determinations
T1 construct: purchased R&D Systems
T1 sequence (P06756 31-889 limits assumed): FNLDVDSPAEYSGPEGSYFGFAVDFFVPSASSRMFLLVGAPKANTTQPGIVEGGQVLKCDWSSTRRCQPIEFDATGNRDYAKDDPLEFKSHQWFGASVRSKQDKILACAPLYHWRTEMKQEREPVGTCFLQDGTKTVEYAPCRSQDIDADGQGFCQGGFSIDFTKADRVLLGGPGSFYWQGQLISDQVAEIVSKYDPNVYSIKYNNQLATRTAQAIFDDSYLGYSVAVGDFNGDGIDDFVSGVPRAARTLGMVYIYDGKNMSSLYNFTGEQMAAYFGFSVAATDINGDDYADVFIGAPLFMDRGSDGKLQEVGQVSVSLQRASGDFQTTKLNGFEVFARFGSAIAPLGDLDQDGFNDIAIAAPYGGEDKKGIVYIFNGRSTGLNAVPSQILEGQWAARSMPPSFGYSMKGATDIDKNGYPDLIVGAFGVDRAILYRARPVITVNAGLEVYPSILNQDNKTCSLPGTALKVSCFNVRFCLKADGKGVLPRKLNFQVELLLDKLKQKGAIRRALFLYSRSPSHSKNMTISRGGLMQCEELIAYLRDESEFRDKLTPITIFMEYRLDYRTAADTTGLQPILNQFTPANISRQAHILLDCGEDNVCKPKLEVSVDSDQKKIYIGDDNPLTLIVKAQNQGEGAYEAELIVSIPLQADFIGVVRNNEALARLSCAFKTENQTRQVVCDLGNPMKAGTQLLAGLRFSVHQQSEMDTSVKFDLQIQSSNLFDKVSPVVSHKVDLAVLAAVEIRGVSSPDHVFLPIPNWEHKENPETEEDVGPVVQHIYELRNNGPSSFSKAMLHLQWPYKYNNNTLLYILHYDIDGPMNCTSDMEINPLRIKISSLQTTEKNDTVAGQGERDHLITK
T1 sequence (P06756 891-992 partner limits assumed): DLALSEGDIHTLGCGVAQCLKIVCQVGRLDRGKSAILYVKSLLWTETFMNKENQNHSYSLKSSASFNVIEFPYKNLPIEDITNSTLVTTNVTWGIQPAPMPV
T1 sequence (P18564 22-707 limits assumed): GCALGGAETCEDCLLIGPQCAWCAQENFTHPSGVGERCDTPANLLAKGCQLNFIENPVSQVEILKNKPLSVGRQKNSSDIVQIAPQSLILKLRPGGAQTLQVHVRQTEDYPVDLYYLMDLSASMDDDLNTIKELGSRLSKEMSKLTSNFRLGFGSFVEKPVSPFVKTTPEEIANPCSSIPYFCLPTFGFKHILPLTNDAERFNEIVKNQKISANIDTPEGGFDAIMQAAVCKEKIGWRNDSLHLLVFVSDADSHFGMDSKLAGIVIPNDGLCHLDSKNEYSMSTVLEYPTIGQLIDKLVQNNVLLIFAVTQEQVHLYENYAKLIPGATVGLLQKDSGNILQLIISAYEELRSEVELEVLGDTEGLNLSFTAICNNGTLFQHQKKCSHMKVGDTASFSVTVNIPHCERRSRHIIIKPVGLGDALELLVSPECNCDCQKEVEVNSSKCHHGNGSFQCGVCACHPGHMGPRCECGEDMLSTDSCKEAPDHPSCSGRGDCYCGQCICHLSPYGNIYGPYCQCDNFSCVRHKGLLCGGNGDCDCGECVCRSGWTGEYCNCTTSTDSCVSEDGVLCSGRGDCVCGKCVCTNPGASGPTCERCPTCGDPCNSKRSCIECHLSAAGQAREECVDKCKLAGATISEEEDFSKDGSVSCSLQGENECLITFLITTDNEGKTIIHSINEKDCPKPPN
Protocol: The assay was performed according to previously reported procedures with slight modifications.
Recombinant human integrin αVβ6 receptor (R&D Systems, Minneapolis, MN, USA) was diluted to 1.0 μg/mL in coating buffer containing 20 mM Tris-HCl (pH 7.4), 150 mM NaCl, 1 mM MnCl2, 2 mM CaCl2, and 1 mM MgCl2. An aliquot of diluted receptor (100 μL/well) was added to 96-well microtiter plates (Nunc MaxiSorp, Thermo Fisher Scientific, Roskilde, Denmark) and incubated overnight at 4 °C. The plates were incubated with blocking solution (coating buffer plus 1% bovine serum albumin) for additional 2 h at room temperature to block nonspecific binding. After washing twice with blocking solution, plates were incubated shaking in the dark for 3 h at room temperature, with various concentrations (10^−4–10^−11 M) of test compounds in the presence of 1 μg/mL biotinylated fibronectin (Molecular Innovations, Novi, MI, USA). Biotinylation was performed using an EZ-Link Sulfo-NHS-Biotinylation kit (Pierce, Rockford, IL, USA). After washing three times, the plates were incubated shaking for 1 h, at room temperature, with streptavidin-biotinylated peroxidase complex (Amersham Biosciences, Uppsala, Sweden). After washing 3 times with blocking solution, plates were incubated with 100 μL/well of Substrate Reagent Solution (R&D Systems) for 30 min shaking in the dark, before stopping the reaction with the addition of 50 μL/well 2N H2SO4. Absorbance at 415 nm was read in a SynergyTM HT Multi-Detection Microplate Reader (BioTek Instruments, Inc., Winooski, VT, USA). Each data point represents the average of triplicate wells; data analysis was carried out by nonlinear regression analysis with GraphPad Prism software (GraphPad Software, Inc., La Jolla, CA, USA). Each experiment was repeated in triplicate.

αVβ3 integrin [2] = molecular target: T2, αVβ3 integrin (Homo sapiens, UniProt P05106+P06756); test: Inhibition of biotinylated vitronectin binding to isolated αVβ3 integrin; details: 50% inhibition of biotinylated vitronectin binding to isolated αVβ3; new RAD peptidomimetic tested for this paper
T2 sequence (P06756 31-889 limits assumed): as the sequence (P06756 31-889 limits assumed) above
T2 sequence (P06756 891-1048 partner limits assumed): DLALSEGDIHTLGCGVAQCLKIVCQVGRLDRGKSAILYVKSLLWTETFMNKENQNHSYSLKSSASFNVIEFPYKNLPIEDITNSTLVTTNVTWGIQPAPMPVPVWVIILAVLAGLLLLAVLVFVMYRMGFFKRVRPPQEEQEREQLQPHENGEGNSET
T2 sequence (P05106 27-788): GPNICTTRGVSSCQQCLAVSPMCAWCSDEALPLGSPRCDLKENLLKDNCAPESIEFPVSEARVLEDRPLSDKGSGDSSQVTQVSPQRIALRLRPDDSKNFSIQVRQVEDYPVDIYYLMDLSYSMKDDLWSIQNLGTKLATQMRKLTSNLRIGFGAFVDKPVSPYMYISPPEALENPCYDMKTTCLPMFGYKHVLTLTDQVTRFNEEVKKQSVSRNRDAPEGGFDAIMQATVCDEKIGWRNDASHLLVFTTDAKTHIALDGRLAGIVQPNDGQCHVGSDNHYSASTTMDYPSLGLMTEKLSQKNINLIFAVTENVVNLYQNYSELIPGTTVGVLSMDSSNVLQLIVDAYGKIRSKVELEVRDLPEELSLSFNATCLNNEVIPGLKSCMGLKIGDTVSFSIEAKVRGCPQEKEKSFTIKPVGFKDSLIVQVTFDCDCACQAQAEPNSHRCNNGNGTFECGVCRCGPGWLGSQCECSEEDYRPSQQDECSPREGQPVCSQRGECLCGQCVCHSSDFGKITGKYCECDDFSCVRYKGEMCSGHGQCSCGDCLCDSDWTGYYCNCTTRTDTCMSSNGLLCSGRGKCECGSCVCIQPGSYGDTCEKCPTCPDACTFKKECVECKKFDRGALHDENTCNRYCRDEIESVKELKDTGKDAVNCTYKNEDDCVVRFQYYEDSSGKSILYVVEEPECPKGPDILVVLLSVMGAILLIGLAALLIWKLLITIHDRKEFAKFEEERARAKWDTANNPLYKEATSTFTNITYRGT

human glioblastoma cells = tested on: human glioblastoma cells; design: method as in PMID 25761230; details: cited from earlier work
different cancer cells = tested on: different cancer cells; design: method as in PMID 25053992; details: cited from earlier work
[3] = tested on: FAK/Akt integrin-activated transduction signaling pathway; design: method as in PMID 25761230; details: human glioblastoma cells; cited from earlier work
human endothelial cells = tested on: human endothelial cells; design: method as in PMID 25053992; details: cited from earlier work
αVβ3 integrin [4] = molecular target: T2, αVβ3 integrin; design: method as in PMID 22517378; details: 50% inhibition of biotinylated vitronectin binding to αVβ3; cited from earlier work
integrin αVβ6 = tested on: integrin αVβ6; design: method as in PMID 28074920; details: immobilized LAP and soluble integrin; cited from earlier work

N=C(N)NCCC[C@@H]1NC(=O)C[C@@H]2NC(=O)[C@@H](CNC(=O)[C@H](CC(=O)O)NC(=O)CNC1=O)N(Cc1ccccc1)C2=O [Compound 2]
IC50 [1]: 345 ± 1 nM | IC50 (αVβ6)/IC50 (αVβ3) [1]: 108

CC1NC(=O)[C@H](CCCNC(=N)N)NC(=O)C[C@H]2NC(=O)[C@H](CNC(=O)[C@H](CC(=O)O)NC1=O)N(Cc1ccccc1)C2=O (some centres unmarked) [Compound 8, Cyclo[DKP-3-RAD]]
αVβ3 IC50 (αVβ3 integrin [2]): micromolar | αVβ6 IC50 [1]: micromolar | IC50 (αVβ6)/IC50 (αVβ3) [1]: 3

N=C(N)NCCC[C@@H]1NC(=O)C[C@H]2NC(=O)[C@H](CNC(=O)[C@H](CC(=O)O)NC(=O)CNC1=O)N(Cc1ccccc1)C2=O [Compound 3]
effects on integrin-mediated cell infiltration processes (human glioblastoma cells): inhibitory effects | inhibition of cell adhesion (different cancer cells): significantly inhibit | effects on the FAK/Akt integrin-activated transduction signaling pathway [3]: inhibitory effects | inhibition of angiogenesis induced by pro-angiogenic growth factors (human endothelial cells): significantly inhibit | IC50 [1]: 95.6 ± 24.6 nM | IC50 (αVβ6)/IC50 (αVβ3) [1]: 21

N=C(N)NCCC[C@@H]1NC(=O)C[C@@H]2C(=O)N(Cc3ccccc3)[C@@H](CNC(=O)[C@H](CC(=O)O)NC(=O)CNC1=O)C(=O)N2Cc1ccccc1 [Compound 7]
IC50 [1]: 2.3 ± 0.8 nM | αVβ6 IC50 [1]: low nanomolar | αVβ3 IC50 (αVβ3 integrin [4]): subnanomolar

N=C(N)NCCC[C@@H]1NC(=O)C[C@H]2C(=O)N(Cc3ccccc3)[C@H](CNC(=O)[C@H](CC(=O)O)NC(=O)CNC1=O)C(=O)N2Cc1ccccc1 [Compound 5]
IC50 [1]: 173 ± 52.5 nM | IC50 (αVβ3 integrin [4]): 12.6 ± 5 nM

CC(C)[C@H]1C(=O)N[C@@H](CCCNC(=N)N)C(=O)NCC(=O)N[C@@H](CC(=O)O)C(=O)N[C@H](Cc2ccccc2)C(=O)N1C [Compound 1a, cyclo[RGDf(N-Me)V]]
αVβ6 IC50 (integrin αVβ6): micromolar

N=C(N)NCCC[C@@H]1NC(=O)C[C@@H]2C(=O)N[C@@H](CNC(=O)[C@H](CC(=O)O)NC(=O)CNC1=O)C(=O)N2Cc1ccccc1 [Compound 6]
IC50 [1]: 76.6 ± 4.2 nM | IC50 (αVβ6)/IC50 (αVβ3) [1]: 37

N=C(N)NCCC[C@@H]1NC(=O)C[C@H]2C(=O)N[C@H](CNC(=O)[C@H](CC(=O)O)NC(=O)CNC1=O)C(=O)N2Cc1ccccc1 [Compound 4]
IC50 [1]: 95.3 ± 4.9 nM
